Results reported in PMC5609566, “Elucidation of antimicrobial activity and mechanism of action by N-substituted carbazole derivatives” (Bioorganic & Medicinal Chemistry Letters, 2017).
In brackets after ≈: the same amount, converted by molar mass.

How the values were obtained:
S. cerevisiae H^+-ATPase = target: T1, S. cerevisiae H^+-ATPase (Saccharomyces cerevisiae, UniProt P05030); assay: Colorimetric ATPase assay (ATP hydrolysis), S. cerevisiae plasma membranes; assay type: biochemical; conditions: initial hit compounds, Table 1
T1 construct: transformed with the full-length cDNA of the S. cerevisiae plasma membrane H^+-ATPase isoform PMA1; made in house; host or cells: S. cerevisiae RS72
T1 sequence (P05030 whole entry, canonical isoform): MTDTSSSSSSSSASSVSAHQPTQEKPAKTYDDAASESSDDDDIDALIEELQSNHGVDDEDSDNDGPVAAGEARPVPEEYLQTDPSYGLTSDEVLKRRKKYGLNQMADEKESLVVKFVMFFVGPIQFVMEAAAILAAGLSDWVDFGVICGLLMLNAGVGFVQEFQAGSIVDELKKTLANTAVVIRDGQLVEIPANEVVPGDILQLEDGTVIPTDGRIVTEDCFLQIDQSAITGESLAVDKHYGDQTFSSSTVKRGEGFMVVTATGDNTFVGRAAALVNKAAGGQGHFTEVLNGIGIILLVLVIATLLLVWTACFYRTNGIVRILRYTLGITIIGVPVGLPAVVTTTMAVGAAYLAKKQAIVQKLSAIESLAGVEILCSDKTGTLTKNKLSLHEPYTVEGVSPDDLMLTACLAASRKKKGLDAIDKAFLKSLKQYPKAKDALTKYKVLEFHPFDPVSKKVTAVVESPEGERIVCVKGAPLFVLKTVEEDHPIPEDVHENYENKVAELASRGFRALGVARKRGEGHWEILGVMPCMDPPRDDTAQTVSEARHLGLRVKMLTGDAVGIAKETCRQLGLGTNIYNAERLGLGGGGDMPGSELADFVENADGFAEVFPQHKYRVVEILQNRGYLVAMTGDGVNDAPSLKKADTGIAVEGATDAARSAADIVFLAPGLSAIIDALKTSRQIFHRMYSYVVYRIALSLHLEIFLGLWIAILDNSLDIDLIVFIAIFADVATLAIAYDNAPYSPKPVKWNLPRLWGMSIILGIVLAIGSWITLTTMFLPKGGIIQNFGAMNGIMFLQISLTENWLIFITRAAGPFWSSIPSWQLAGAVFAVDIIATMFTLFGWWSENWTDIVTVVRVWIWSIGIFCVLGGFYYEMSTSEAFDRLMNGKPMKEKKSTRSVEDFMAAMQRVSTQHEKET
Source text: To investigate the H^+-ATPase inhibitory effect of the compounds we isolated plasma membranes containing H^+-ATPase from S. cerevisiae and C. albicans cells.[15] Plasma membranes isolated from pig kidney as well as endoplasmic reticulum membranes from rabbit hind leg muscle were used to counter-screen compounds for activity against mammalian Na^+,K^+-ATPase and Ca^2+-ATPase, respectively. Prior to their use, fungal plasma membrane batches were validated by determining the maximum ATP hydrolysis activity, the pH optimum of the ATPase activity, and the sensitivity to inhibition by orthovanadate. ATPase activity was determined by a colorimetric assay that measures the amount of inorganic phosphate liberated over time, as described in Kjellerup et al., 2017.[15] Table 2, Table 3, Table 4 list the IC50 values obtained by measuring the concentration dependence of the ATPase activity for the fifteen carbazole compounds with each of the four membrane preparations.
Pma1-containing plasma membranes were prepared from S. cerevisiae RS72 yeast cells that had been transformed with the full-length cDNA of the S. cerevisiae plasma membrane H^+-ATPase isoform PMA1 under control of the PMA1 promoter, using the same procedure as described in Kongstad et al., 2014^1. For the preparation of C. albicans membranes, a 100 ml overnight culture grown in YPD (10 g/L yeast extract (BD, Sparks, MD), 20 g/L Bacto peptone (BD), 20 g/L D-(+)-glucose) was transferred to 1 L YPD and grown for a further 7 h at RT with agitation (150 rpm), followed by cell harvesting and subsequent membrane preparation using the same procedure as described in Kongstad et al., 2014^1. […] Rabbit sarcoplasmic reticulum membranes containing Sarco/Endoplasmic Reticulum Ca^2+ ATPase (SERCA) were kindly provided by Dr. Claus E. Olesen and Dr. Jesper V. Møller, Aarhus University and prepared as described in Andersen et al., 1985^2. Pig kidney Na^+,K^+-ATPase was kindly provided by Dr. Natalya Fedosova, Aarhus University and prepared as described in Klodos et al., 2002^3.
The compound libraries were purchased from Enamine Ltd, Ukraine and Chembridge Corp, USA. ATPase activity was determined by measuring the amount of liberated phosphate from ATP hydrolysis. […] Reactions were initiated by the addition of Na-ATP to a final concentration of 2.5 mM (Pma1 and Na^+,K^+-ATPase) or 5 mM (SERCA), followed by 30 minutes incubation at 30 °C. The amount of liberated phosphate was determined colorimetrically after addition of STOP solution (mixture of L-ascorbic acid, ammonium heptamolybdate tetrahydrate, and HCl to give final concentrations of 65 mM, 2.2 mM, and 189 mM, respectively) with 5 minutes incubation at room temperature (RT) followed by addition of arsenite solution (mixture of NaAsO2, sodium citrate dihydrate, and acetic acid to give final concentrations of 3.1 mM, 28 mM, and 141 mM, respectively). Absorption was measured at 860 nm after an additional 30 minutes incubation at RT.

S. cerevisiae [1] = assay: Fungal growth inhibition, library hits; assay type: cell-based; conditions: Saccharomyces cerevisiae, baker yeast
Description: (§1) Compound hits from the library screening were evaluated against baker yeast S. cerevisiae and C. albicans (ATCC 90028). The minimum inhibitory concentration (MIC) was defined as the lowest concentration inhibiting visual growth of the microorganism and this was determined in triplicate. Standard errors were typically less than 5%. MICs for synthesized compounds were determined on the following fungal isolates: Saccharomyces cerevisiae (ATCC 9763), Candida albicans (SC5314), Candida krusei (ATCC 6258), Candida glabrata (ATCC 90030), Aspergillus flavus (ATCC MYA-1005) and Aspergillus fumigatus (ATCC 13073), which were purchased from American Type Culture Collection, and C. glabrata strain Cg003, which was kindly provided by Julius Subik, Comenius University in Bratislava, Slovak Republic. Cg003 is a clinical isolate, characterized to be resistant to fluconazole and itraconazole due to overexpression of the multidrug resistance efflux pumps Cdr1p and Cdr2p^5. The fungal growth assay was performed as described in Kjellerup et al., 2017^6.

C. albicans (ATCC 90028) = assay: Fungal growth inhibition, library hits; assay type: cell-based
Description: as §1

S. cerevisiae [2] = assay: Extracellular acidification assay; assay type: cell-based; conditions: Saccharomyces cerevisiae, mean ± SEM n = 3
Source text: (§2) It was subsequently evaluated whether or not the carbazoles were able to prevent extracellular acidification of the surrounding media by blocking the pumping activity of the H^+-ATPase within fungal cells.[15] […] The H^+-ATPase requires ATP to transport protons out of fungal cells. Consequently, a decrease in intracellular ATP (iATP) levels will indirectly affect H^+-ATPase activity. […] In all cases, iATP levels were […] in C. albicans cells exposed to carbazoles compared to the untreated control. […] This implies that the carbazoles need to pass the fungal membrane to inhibit the H^+-ATPase and 7, 18 and 19 may have reduced membrane permeability.
(§3) The ability of S. cerevisiae and C. albicans to acidify the media upon glucose addition was evaluated using the pH sensor dextran (40,000MW)-fluorescein-isothiocyanate as described in Kjellerup et al., 2017^6. Briefly, the cells was starved overnight in 50 mM KCl, pH 6.7 at 4 °C. The cell suspension (Final OD600 of 0.19) was mixed with 1.3 µg/ml dextran (40,000MW)-fluorescein-isothiocyanate, 1.5 % DMSO containing inhibitors and the assay initiated with the addition of 2 % D-(+)-glucose. The rate of media acidification was calculated based on the slope of the fluorescent drop in the first 12 minutes after glucose addition.

C. albicans = assay: Extracellular acidification assay; assay type: cell-based; conditions: Candida albicans, mean ± SEM n = 3
Source text: as §2, §3

C. albicans cells = assay: Intracellular ATP determination; assay type: cell-based; conditions: compound at 20 µM, 30 minutes, mean ± SEM n = 5
Source text: as §2
C. albicans cells were transferred to 3 ml of YPD media and grown overnight at 30 °C and 150 rpm. The cells were pelleted at 2000 × g for 2 min. and washed in PBS (Sigma-Aldrich, catalog number 8537) twice before re-suspension to an OD600 of 0.1. Cell suspension (98 µL) and 2 µl compound in DMSO were incubated for 30 minutes at RT. Forty microliters of this suspension was then transferred to a black 96-well plate containing 40 µl BacTiterGlo reagent (Promega, Madison, WI) and the plate was incubated for 15 minutes in the dark at room temperature. Luminescence was read on a SpectraMax X5 (Molecular Devices, Sunnyvale, CA) plate reader with 10 s shake and 0.5 s integration time. A standard curve containing 10, 100 and 1000 nM ATP was prepared for every experiment.

Structure (SMILES): OC(CN1CCCCCC1)Cn1c2ccccc2c2ccccc21 (stereo not shown) [Compound 1]
- IC50 (S. cerevisiae H^+-ATPase): 18.8 ± 7.3 µM
- MIC (S. cerevisiae [1]): > 200 µM
- MIC (C. albicans (ATCC 90028); ATCC 90028, library hits): >200 µM

Structure (SMILES): CC(C)CCOCC(O)Cn1c2ccccc2c2ccccc21 (stereo not shown) [Compound 2]
- IC50 (S. cerevisiae H^+-ATPase): 5.5 ± 0.7 µM
- MIC (S. cerevisiae [1]): 50 µM (≈ 15.6 µg/mL)
- MIC (C. albicans (ATCC 90028); ATCC 90028, library hits): >200 µM

Structure (SMILES): Oc1ccccc1Cn1c2ccccc2c2ccccc21 [Compound 3]
- IC50 (S. cerevisiae H^+-ATPase): 9.7 ± 0.6 µM
- MIC (S. cerevisiae [1]): 50 µM (≈ 13.7 µg/mL)
- MIC (C. albicans (ATCC 90028); ATCC 90028, library hits): 100 µM (≈ 27.3 µg/mL)

Structure (SMILES): C[C@@H](c1ncncc1F)[C@](O)(Cn1cncn1)c1ccc(F)cc1F [Voriconazole, reference compound]
- IC50 (S. cerevisiae [2]): > 75 µM
- IC50 (C. albicans): > 75 µM
- iATP (C. albicans cells): 37 ± 19 nM

Structure (SMILES): OC(CN1CCCC1)Cn1c2ccc(Cl)cc2c2cc(Cl)ccc21 (stereo not shown) [Compound 4]
- IC50 (S. cerevisiae H^+-ATPase): 17.3 ± 5.5 µM
- MIC (S. cerevisiae [1]): 10 µM (≈ 3.63 µg/mL)
- MIC (C. albicans (ATCC 90028); ATCC 90028, library hits): 30 µM (≈ 10.9 µg/mL)
- MIC (C. albicans (ATCC 90028); Candida albicans, ATCC90028, ATCC 90028, library hits): ≥ 30 µM
